Marks after values point to notes of the source that are not given here. Each block holds one molecule with its values, some of them ahead of it.
Columns and labels:
[1] = MTT assay, cell viability; details: male, human, peripheral blood mononuclear cells (PBMCs)
Procedure: (§1) Blood was collected by venipuncture into heparinized vacutainers (BD Vacutainer Systems, Plymouth, UK), stored at room temperature, protected from light, and processed within 2 h. PBMCs were isolated by density gradient centrifugation (400 × g, 30 min) with separation medium (Histopaque® - 1077). After isolation, PBMCs were stained with Trypan blue and counted using a hemocytometer.
(§2) The MTT assay is regarded as a sensitive and reliable colorimetric assay to quantify cellular viability, proliferation, and activation. It is based on the ability of mitochondrial nicotinamide adenine dinucleotide phosphate (NADPH)-dependent cellular oxidoreductase enzymes present in viable cells to reduce soluble tetrazolium salt (3-[4,5-dimethylthiazol-2-yl]-2,5 diphenyl tetrazolium bromide) to insoluble, colored formazan compounds [26].
(§3) The MTT assay was conducted in triplicate in the 96-well plate, with two technical replicates. The seeding density was 6.25 × 10^3 cells per well.
(§4) After 72 h of incubation, the reagent MTT was added to samples for 3 h at 37 ^∘C. DMSO was added to solubilize the formazan crystals followed by further incubation for 30 and 60 min at 37 ^∘C. The optical density was measured at 570 nm using the multiplate reader Multi-Scan FC (Thermo Fisher Scientific, USA). The cell viability was determined according to (5): (5) [drawing 5]

PBMCs [2] = assay: Alkaline comet assay, tail intensity; type: cell-based, human; details: 3 h
Procedure: as §1
The comet assay is a sensitive technique for measuring DNA damage at the level of the individual eukaryotic cell. It is based upon the fact that denatured cleaved DNA fragments, or damaged DNA, migrate out of the cell at a different rate during electrophoresis than undamaged DNA [32]. Damaged DNA creates a “comet tail,” while the undamaged DNA remains within the cell membrane creating the “comet head.” The Comet assay is most commonly run under alkaline conditions to detect single and double-stranded DNA breaks.
PBMCs were isolated as previously described and then cultivated in PB-MAX™ Karyotyping Medium and incubated for 24 h at 37 ^∘C. […] Positive and negative controls were also set up equally. Treated cells were incubated at 37 ^∘C for 3 h and then centrifuged at 800 rpm (120 × g) for 5 min. The supernatant was removed and the cells were subsequently resuspended.
In a tube containing 120 µL of 0.7% LMPA, 80 µL of the sample was added for each tested concentration and controls. Prepared samples were applied to slides precoated with a 1% NMPA and covered with coverslips. After gel polymerization, coverslips were removed and slides were immersed in lysis buffer overnight at 4 ^∘C. Afterward, slides were washed with distilled water and placed into the electrophoresis tank with an electrophoresis solution (200 mM Na2EDTA, 10 M NaOH, and distilled water, pH > 13) for 20 min, followed by 20 min of electrophoresis (1 V/cm). After electrophoresis, slides were gently rinsed in the following sequences: phosphate-buffered saline (PBS) for 5 min, 70% (V/V) ethanol for 5 min, and finally 96% (V/V) ethanol for 15 min.
Prior to the fluorescent microscope analysis (U-MNU2; Olympus BX51, Tokyo, Japan), slides were rehydrated and stained with DAPI (1 µg/mL). DNA damage in treated cells was evaluated using Comet Assay IV software (Instem LSS Ltd., Staffordshire, UK), by measuring tail intensity (TI%), the percent of DNA in the tail of comets. For each concentration, as well as for positive and negative controls, at least 200 comets were analyzed. The Minimum Information for Reporting Comet Assay (MIRCA) protocol was used to report the results.

PBMCs [3] = assay: Cytokinesis block micronucleus cytome (CBMN-cyt) assay; type: cell-based, human; design: Total MNi (mean ± SD) / BN cells with MNi (mean ± SD) / NBUDs (mean ± SD) / NPBs (mean ± SD): unit not given here
Source text: DNA damage events were scored specifically in once-divided binucleated (BN) cells and included micronuclei (MNi), a biomarker of chromosome breakage and/or whole chromosome loss, nucleoplasmic bridges (NPBs), a biomarker of DNA misrepair and/or telomere end-fusions, and nuclear buds (NBUDs), a biomarker of elimination of amplified DNA and/or DNA repair complexes. Cytostatic and cytotoxic effects were examined by calculating the nuclear division index (NDI) and nuclear division cytotoxicity index (NDCI) based on the proportion of mono-, bi-, and multinucleated cells and necrotic and/or apoptotic cell ratios, respectively.
Whole blood, 400 µL per each treatment, was cultured in PB-MAX™ Karyotyping Medium for 72 h at 37 ^∘C. […] Untreated cultures were set up as negative controls. Cytochalasin B was added to the final concentration of 4.5 µg/mL to block cytokinesis.
After the cultivation period, cultures were centrifuged for 10 min at 1000 rpm (188 × g) and subjected to hypotonic treatment with 0.56% KCl and centrifuged immediately after the hypotonic addition. Hypotonic treatment was followed by three fixations in ice-cold glacial acetic acid + ethanol (1:3) fresh fixative. The fixed lymphocyte solution was dropped on coded microscope slides. Air-dried slides were stained in 5% Giemsa for 7 min. […] Frequencies of mononuclear, binuclear, trinuclear, and quadrinuclear cells, as well as apoptotic and necrotic cells, were scored in a total number of at least 500 cells. All genotoxicity and cytotoxicity parameters were recognized according to the criteria given by Fenech.

human PBMCs = assay: MTT assay, cell viability; details: human PBMCs, 72 h, 36.36–109.09 ng/mL
Procedure: as §1, §2, §3, §4

HEK293 cells = test system: HEK293 cells; design: method as in earlier work; details: cited from earlier work
[4] = β-CD […] (w/w), 25 mg DMH/mL of water
Procedure: Phase solubility studies were performed according to the Higuchi and Connors’ method [21]. […] Sample solutions were prepared as described by Hindija et al. [22]. […] Each measurement was run in triplicate.
Phase solubility studies, where the change of drug solubility corresponds to CD concentration, were conducted to assess the binding characteristics of the drug and CD and to determine the values of stability constant (Ks), complexation efficacy (CE), and utility number (UCD).
The utility number (UCD) is expressed as: (4) [drawing 4] where mD and mCD are the drug dose and workable amount of CD in mg, respectively, while MWD and MWCD stand for molecular weights of D and CD [22].

HCT-116 cancer cells = details: cited from earlier work
HeLa cells = test system: HeLa cells; design: method as in PMID 19616959; details: cited from earlier work
Calu-3 cells = test system: Calu-3 cells; design: method as in PMID 18160169; details: cited from earlier work
MDA-MB-231 cancer cells = details: cited from earlier work
LO2 cells = test system: LO2 cells; design: method as in PMID 26256188; details: cited from earlier work
[5] = test system: endothelial (HUVEC) cells; details: cited from earlier work
mouse retinal cells = test system: mouse retinal cells; design: method as in PMID 33803405; details: cited from earlier work

Tail intensity (mean ± SD) (PBMCs [2]; 5-FU 100 µg/mL): 5.93 ± 0.23%
SMILES: O=c1[nH]cc(F)c(=O)[nH]1 [5-FU, 5-fluorouracil]
viability at 72 h, 100 µg/mL [1]: 64.8% | Genotoxic effects in alkaline comet assay (PBMCs [2]): genotoxic effects were observed | BN cells with MNi (mean ± SD) (PBMCs [3]; positive control): 19 ± 6.56 | NBUDs (mean ± SD) (PBMCs [3]; positive control): 3.5 ± 1.92 | NDCI, nuclear division cytotoxicity index (mean ± SD) (PBMCs [3]; positive control): 1.577 ± 0.01 | NDI, nuclear division index (mean ± SD) (PBMCs [3]; positive control): 1.612 ± 0.01 | NPBs (mean ± SD) (PBMCs [3]; positive control): 1 ± 0.82 | Total MNi (mean ± SD) (PBMCs [3]; positive control): 19.25 ± 6.65

SMILES: CN(C)CCOC(c1ccccc1)c1ccccc1.Cn1c(=O)c2[nH]c(Cl)nc2n(C)c1=O [DMH, 2-benzhydryloxy-N,N-dimethylethanamine; 8-chloro-1,3-dimethyl-7H-purine-2,6-dione]
Difference in cell viability versus negative control (Tukey–Kramer) (human PBMCs): no statistically significant differences | Effect on cell viability (HEK293 cells): may slightly affect the viability | NBUDs (mean ± SD) (PBMCs [3]; DMH 72.73 ng/mL): 0.75 ± 0.96^s | NPBs (mean ± SD) (PBMCs [3]; DMH 72.73 ng/mL): 0.25 ± 0.5 | Total MNi (mean ± SD) (PBMCs [3]; DMH 72.73 ng/mL, BN cells): 4.25 ± 0.96^r, s | NBUDs (mean ± SD) (PBMCs [3]; DMH 90.91 ng/mL): 1.75 ± 1.26^s | NPBs (mean ± SD) (PBMCs [3]; DMH 90.91 ng/mL): 0.25 ± 0.5 | Total MNi (mean ± SD) (PBMCs [3]; DMH 90.91 ng/mL, BN cells): 6.5 ± 1.92^s | NBUDs (mean ± SD) (PBMCs [3]; DMH 109.09 ng/mL): 1 ± 0.82^s | NPBs (mean ± SD) (PBMCs [3]; DMH 109.09 ng/mL): 0.25 ± 0.5 | Total MNi (mean ± SD) (PBMCs [3]; DMH 109.09 ng/mL, BN cells): 6.5 ± 2.38^s | UCD, utility number [4]: 1.156

Tail intensity (mean ± SD) (PBMCs [2]; concentration of β-CD 250 ng/mL): 3.02 ± 1.45% | Tail intensity (mean ± SD) (PBMCs [2]; concentration of β-CD 500 ng/mL): 3.22 ± 1.09% | Tail intensity (mean ± SD) (PBMCs [2]; concentration of β-CD 750 ng/mL): 3.25 ± 1.02% | Tail intensity (mean ± SD) (PBMCs [2]; concentration of β-CD 1000 ng/mL): 3.42 ± 1.08%
SMILES: OC[C@H]1O[C@@H]2O[C@H]3[C@H](O)[C@@H](O)[C@@H](O[C@H]4[C@H](O)[C@@H](O)[C@@H](O[C@H]5[C@H](O)[C@@H](O)[C@@H](O[C@H]6[C@H](O)[C@@H](O)[C@@H](O[C@H]7[C@H](O)[C@@H](O)[C@@H](O[C@H]8[C@H](O)[C@@H](O)[C@@H](O[C@H]1[C@H](O)[C@H]2O)O[C@@H]8CO)O[C@@H]7CO)O[C@@H]6CO)O[C@@H]5CO)O[C@@H]4CO)O[C@@H]3CO [β-CD, β-cyclodextrin]
viability at 72 h, 1000 ng/mL [1]: 90.3% | Effect on cell viability (HCT-116 cancer cells): does not affect cell viability | Effect on cell viability (HeLa cells): does not affect cell viability | Effect on cell viability (Calu-3 cells): does not affect cell viability | Effect on cell viability (MDA-MB-231 cancer cells): does not affect cell viability | Effect on cell viability (LO2 cells): does not affect cell viability | Effect on cell viability [5]: does not affect cell viability | Effect on cell viability (mouse retinal cells): does not affect cell viability

— paper PMC11496845, “Preparation, characterization, and in vitro cytogenotoxic evaluation of a novel dimenhydrinate-β-cyclodextrin inclusion complex” (Biomolecules and Biomedicine, 2024)
